Assay results taken from patent US9618513B2, “Compositions and methods for detecting and treating colorectal cancer” (The Regents of the University of Michigan, priority 2014, dated 2017).

How the values were obtained:
[1] = tested on: primary colon cancer cells; experiment: Colon cancer sphere assay, primary colon cancer cells; format: cell-based, human; conditions: in the presence of IL-22, inhibitor 10 uM
Method: (A, B) IL-22 is expressed by immune cells in colon cancer tissues. Different cell populations were sorted from colon cancer tissues and IL-22 expression was measured by real time PCR. (5-10 donors, P<0.05). (C) IL-22 is spontaneously released by different immune cell populations in colon cancer tissues. Different CD45^+ immune subsets (10^6/ml) were sorted from colon cancer and blood, and cultured for 12 hours. IL-22 was detected via ELISA. (n=5, *P<0.05). (D, E) IL-22 is expressed by activated CD4^+ T cells in colon cancer tissues. CD45^+ subsets (10^6/ml) were sorted from colon cancer and blood, and were activated with anti-CD3 and anti-CD28 for 2 days. IL-22 was detected with ELISA (D) or intracellular staining (E). (n=5, *P<0.05). […] IL-22 mRNA was detected by real time PCR (F) and protein by ELISA (G). […] IL-22 expression was quantified with real-time PCR in the migrated and non-migrated cells. Results are expressed as the mean relative expression (H). The phenotype of migrated cells, non-migrated cells and control (before migration) was analyzed by FACS (I). […] The mRNA of stem cell core genes was detected by real-time PCR after 6 hours (K) and ALDH activity was detected by FACS after 48 hours (L). […]
(A) IL-22 induces H3K79me2 in colon cancer cells. […] Total histone modifications were analyzed by western blot. […] Sphere numbers were recorded. […] DOT1L complex gene expression was quantified by real-time PCR. […]

[2] = tested on: primary colon cancer cell line SBCA; experiment: Proliferation of primary colon cancer cell line SBCA; format: cell-based, human
Method: FIG. 21A-E A. Dot1L/H3K79me2 inhibitor EZP004777 (10 uM) had no effect on SUZ12 expression but reduce Sox2. B. EZP004777 had no effect on primary colon cancer cell line SBCA. C. EZH2 inhibitor DZNep reduced SBCA cell proliferation. D. SUZ12 knockdown reduced H3K27m3 level. E. Effect of I1-22 on tumor sphere assay was analyzed in shEZH2, shSUZ12 and Dznep treated cells.
Three primary colon cancer cell lines (SB, WR, JR) were established from fresh colon tissues. These primary colon cancer cells and DLD1 (ATCC) were studied. Colon cancer cells were treated with recombinant IL-22 (R&D) for different time points. The EZH2 inhibitor DZNep was added in conventional or sphere culture (see, e.g., Kryczek, I., et al., (2012) International journal of cancer 130, 29-39). Tumor cell sphere formation and gene expression were examined (see, e.g., Kryczek, I., et al., (2012) International journal of cancer 130, 29-39).

## CC(C)N(CCCNC(=O)Nc1ccc(C(C)(C)C)cc1)C[C@H]1O[C@@H](n2ccc3c(N)ncnc32)[C@H](O)[C@@H]1O [EPZ004777]
[1]
  sphere formation induced by IL-22: suppressed
[2]
  SBCA cell proliferation: no effect
